Experimental data as given in ChEMBL document CHEMBL4196070, “Development of Piperazinediones as dual inhibitor for treatment of Alzheimer's disease” (Eur J Med Chem, 2018).

What was measured:
[1] = Permeability of the compound at 25 ug/ml after 18 hrs by PAMPA-BBB assay; type: ADME; settings: read-out: permeability
Cholinesterase = Cholinesterase (Equus caballus, UniProt P81908); test: Inhibition of equine serum BuChE using butyrylthiocholine iodide as substrate preincubated for 30 mins followed by substrate addition and measured for 20 mins at 1 min interval by Ellman's method
Chain of Cholinesterase (P81908 whole entry): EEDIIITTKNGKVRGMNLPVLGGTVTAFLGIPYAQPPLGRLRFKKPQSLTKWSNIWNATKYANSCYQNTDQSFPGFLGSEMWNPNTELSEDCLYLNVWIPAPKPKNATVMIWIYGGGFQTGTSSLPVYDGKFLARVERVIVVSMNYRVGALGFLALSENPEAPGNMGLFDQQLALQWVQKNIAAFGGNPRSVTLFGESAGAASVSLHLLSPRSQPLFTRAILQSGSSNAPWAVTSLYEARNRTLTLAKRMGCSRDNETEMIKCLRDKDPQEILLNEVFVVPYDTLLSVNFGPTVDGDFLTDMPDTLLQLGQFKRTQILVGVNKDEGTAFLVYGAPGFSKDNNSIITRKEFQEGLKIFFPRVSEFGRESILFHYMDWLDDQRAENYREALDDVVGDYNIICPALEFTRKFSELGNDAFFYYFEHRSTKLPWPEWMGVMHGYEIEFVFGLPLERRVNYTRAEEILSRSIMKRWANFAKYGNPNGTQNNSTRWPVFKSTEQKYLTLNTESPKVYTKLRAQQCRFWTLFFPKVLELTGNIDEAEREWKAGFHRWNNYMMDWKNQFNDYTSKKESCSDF

[2] = molecular target: T1, 72 kDa type IV collagenase (Homo sapiens, UniProt P08253); test: Inhibition of human MMP2 using Mca-Pro-Leu-Gly-Leu-Dpa-Ala-Arg-NH as substrate preincubated for 60 mins followed by substrate addition by fluorescence analysis
T1 sequence (P08253 whole entry): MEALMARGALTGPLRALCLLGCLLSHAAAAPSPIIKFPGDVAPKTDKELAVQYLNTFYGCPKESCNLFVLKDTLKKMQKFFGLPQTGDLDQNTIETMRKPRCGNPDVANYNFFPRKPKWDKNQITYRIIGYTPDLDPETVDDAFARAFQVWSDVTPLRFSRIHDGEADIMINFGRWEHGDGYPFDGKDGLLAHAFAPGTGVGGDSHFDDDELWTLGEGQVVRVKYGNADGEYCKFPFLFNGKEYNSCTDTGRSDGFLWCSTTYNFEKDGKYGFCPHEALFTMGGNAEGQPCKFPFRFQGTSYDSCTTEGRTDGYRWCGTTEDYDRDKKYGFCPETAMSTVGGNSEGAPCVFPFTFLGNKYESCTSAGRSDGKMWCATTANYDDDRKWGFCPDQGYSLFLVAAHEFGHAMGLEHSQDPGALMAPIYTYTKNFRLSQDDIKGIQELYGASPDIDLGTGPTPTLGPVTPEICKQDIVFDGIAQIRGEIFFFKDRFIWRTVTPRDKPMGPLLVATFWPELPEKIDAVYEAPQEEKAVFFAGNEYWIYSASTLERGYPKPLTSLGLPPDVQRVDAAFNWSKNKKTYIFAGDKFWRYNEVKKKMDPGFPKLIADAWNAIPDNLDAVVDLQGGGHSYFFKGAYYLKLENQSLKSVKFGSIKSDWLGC

Acetylcholinesterase [3] = molecular target: T2, Acetylcholinesterase (Electrophorus electricus, UniProt O42275); test: Inhibition of electric eel AChE using acetylthiocholine iodide as substrate preincubated for 30 mins followed by substrate addition and measured for 20 mins at 1 min interval by Ellman's method
T2 sequence (O42275 whole entry): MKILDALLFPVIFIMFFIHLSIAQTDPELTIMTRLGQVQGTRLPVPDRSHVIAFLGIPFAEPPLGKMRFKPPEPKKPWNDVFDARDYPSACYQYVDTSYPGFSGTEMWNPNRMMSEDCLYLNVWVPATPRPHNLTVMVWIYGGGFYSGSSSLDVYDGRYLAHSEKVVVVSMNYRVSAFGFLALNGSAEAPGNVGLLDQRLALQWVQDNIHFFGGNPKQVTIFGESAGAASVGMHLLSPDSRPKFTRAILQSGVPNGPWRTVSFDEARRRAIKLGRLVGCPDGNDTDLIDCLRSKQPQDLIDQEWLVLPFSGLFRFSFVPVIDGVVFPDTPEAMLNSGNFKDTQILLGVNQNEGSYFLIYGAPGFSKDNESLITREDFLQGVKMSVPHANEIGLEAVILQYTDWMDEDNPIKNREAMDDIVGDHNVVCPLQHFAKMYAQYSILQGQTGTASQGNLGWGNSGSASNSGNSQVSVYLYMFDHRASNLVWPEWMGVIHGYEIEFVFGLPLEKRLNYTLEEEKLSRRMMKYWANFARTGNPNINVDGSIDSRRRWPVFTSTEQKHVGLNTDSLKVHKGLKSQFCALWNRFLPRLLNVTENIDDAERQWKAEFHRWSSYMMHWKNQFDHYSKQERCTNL

Rattus norvegicus = test: Toxicity in Wistar rat assessed as mortality at 300 mg/kg measured for 72 hrs; type: organism-based; settings: in vivo
[4] = Toxicity in Wistar rat measured for 72 hrs; type: organism-based; settings: in vivo
Mus musculus = test: Effect on locomotive behavior in Swiss albino mouse at 5 to 20 mg/kg, ip administered once daily for 7 days prior to 4 hrs of training and measured after 5 mins by Y-maze test; type: ADME, organism-based; settings: in vivo
Acetylcholinesterase [5] = molecular target: T2, Acetylcholinesterase; test: Non-competitive inhibition of electric eel AChE using acetylthiocholine iodide as substrate preincubated for 30 mins followed by substrate addition by Dixon plot analysis
[6] = Neuroprotective activity against tetracycline removal-induced cytotoxicity in human MC65 cells assessed as cell viability at 70 uM after 12 hrs by MTT assay relative to control; type: functional; settings: MC65, 12 h, read-out: Activity
[7] = molecular target: T1, 72 kDa type IV collagenase; test: Competitive inhibition of human MMP2 using Mca-Pro-Leu-Gly-Leu-Dpa-Ala-Arg-NH as substrate preincubated for 60 mins followed by substrate addition by secondary plot analysis

Compound | Papp at 18 h, 25 ug/ml [1] | IC50 (Cholinesterase) | IC50 [2] | IC50 (Acetylcholinesterase [3]) | Activity (Rattus norvegicus) | LD50 at 72 h [4] | Activity (Mus musculus) | Ki (Acetylcholinesterase [5]) | viability at 70 µM [6] | Ki [7]
CC(=O)[C@H]1CC[C@H]2[C@@H]3CCC4=CC(=O)CC[C@]4(C)[C@H]3CC[C@]12C [PROGESTERONE] | 9.3 to 15.8 ×10⁻⁶ cm/s | – | – | – | – | – | – | – | – | –
Cc1cccc(S(=O)(=O)N2C(=O)C(c3ccccc3)N(S(=O)(=O)c3cccc(C)c3)C(=O)C2c2ccccc2)c1 (centres undefined) | 11.8 ×10⁻⁶ cm/s | > 200 nM | 73.8 nM | 83.9 nM | – | – | – | – | – | –
O=C1CN(S(=O)(=O)c2ccc(F)cc2)C(=O)CN1S(=O)(=O)c1ccc(F)cc1 | 10.3 ×10⁻⁶ cm/s | 186 nM | 55.1 nM | 78.3 nM | – | – | – | – | – | –
COc1ccc(S(=O)(=O)N2CC(=O)N(S(=O)(=O)c3ccc(OC)cc3)CC2=O)cc1 | 6.46 ×10⁻⁶ cm/s | > 200 nM | 75.3 nM | 91.5 nM | – | – | – | – | – | –
O=C1C(c2ccccc2)N(S(=O)(=O)c2ccc([N+](=O)[O-])cc2)C(=O)C(c2ccccc2)N1S(=O)(=O)c1ccc([N+](=O)[O-])cc1 (centres undefined) | 4.63 ×10⁻⁶ cm/s | 176 nM | 33.5 nM | 60.8 nM | – | – | – | – | – | –
O=C1C(Cc2ccccc2)N(S(=O)(=O)c2ccc(Cl)cc2)C(=O)C(Cc2ccccc2)N1S(=O)(=O)c1ccc(Cl)cc1 (centres undefined) | 12.3 ×10⁻⁶ cm/s | 158 nM | 36.8 nM | 32.5 nM | Toxic | 200 mg/kg | Non-Toxic | – | – | –
Nc1ccc(S(=O)(=O)N2CC(=O)N(S(=O)(=O)c3ccc(N)cc3)CC2=O)cc1 | 6.1 ×10⁻⁶ cm/s | > 200 nM | 53.1 nM | 86.3 nM | – | – | – | – | – | –
O=C1C(Cc2ccccc2)N(S(=O)(=O)c2ccc([N+](=O)[O-])cc2)C(=O)C(Cc2ccccc2)N1S(=O)(=O)c1ccc([N+](=O)[O-])cc1 (centres undefined) | 4.49 ×10⁻⁶ cm/s | 163 nM | 53.8 nM | 57.4 nM | – | – | – | – | – | –
O=C1C(c2ccccc2)N(S(=O)(=O)c2ccc(O)cc2)C(=O)C(c2ccccc2)N1S(=O)(=O)c1ccc(O)cc1 (centres undefined) | 6.84 ×10⁻⁶ cm/s | > 200 nM | 57.2 nM | 84.2 nM | – | – | – | – | – | –
Cc1ccc(S(=O)(=O)N2CC(=O)N(S(=O)(=O)c3ccc(C)cc3)CC2=O)cc1 | 10.4 ×10⁻⁶ cm/s | > 200 nM | 86.7 nM | 118 nM | – | – | – | – | – | –
CCn1cc(C(=O)O)c(=O)c2cc(F)c(N3CCNC(C)C3)c(F)c21 (centres undefined) [LOMEFLOXACIN] | 0.31 to 1.1 ×10⁻⁶ cm/s | – | – | – | – | – | – | – | – | –
NCCc1ccc(O)c(O)c1 [DOPAMINE] | 0.17 to 0.2 ×10⁻⁶ cm/s | – | – | – | – | – | – | – | – | –
O=C1C(Cc2ccccc2)N(S(=O)(=O)c2ccc(Br)cc2)C(=O)C(Cc2ccccc2)N1S(=O)(=O)c1ccc(Br)cc1 (centres undefined) | 7.29 ×10⁻⁶ cm/s | 181 nM | 38.7 nM | 57 nM | – | – | – | – | – | –
CCCCS(=O)(=O)N1CC(=O)N(S(=O)(=O)CCCC)CC1=O | 1.06 ×10⁻⁶ cm/s | > 200 nM | > 1000 nM | > 200 nM | – | – | – | – | – | –
O=C1CN(S(=O)(=O)c2ccc(Br)cc2)C(=O)CN1S(=O)(=O)c1ccc(Br)cc1 | 8.87 ×10⁻⁶ cm/s | 191 nM | 54.7 nM | 81.8 nM | – | – | – | – | – | –
O=C1CN(S(=O)(=O)c2cccc(Cl)c2)C(=O)CN1S(=O)(=O)c1cccc(Cl)c1 | 8.37 ×10⁻⁶ cm/s | 197 nM | 58 nM | 66.7 nM | – | – | – | – | – | –
O=C1C(c2ccccc2)N(S(=O)(=O)c2ccc(Br)cc2)C(=O)C(c2ccccc2)N1S(=O)(=O)c1ccc(Br)cc1 (centres undefined) | 8.31 ×10⁻⁶ cm/s | 183 nM | 32.7 nM | 50.6 nM | – | – | – | – | – | –
O=C1C(Cc2ccccc2)N(S(=O)(=O)c2ccc(O)cc2)C(=O)C(Cc2ccccc2)N1S(=O)(=O)c1ccc(O)cc1 (centres undefined) | 5.68 ×10⁻⁶ cm/s | 199 nM | 72 nM | 59.5 nM | – | – | – | – | – | –
Cc1nnc2n1-c1ccc(Cl)cc1C(c1ccccc1)=NC2 [ALPRAZOLAM] | 4.6 to 5.4 ×10⁻⁶ cm/s | – | – | – | – | – | – | – | – | –
Cc1ccc(S(=O)(=O)N2C(=O)C(c3ccccc3)N(S(=O)(=O)c3ccc(C)cc3)C(=O)C2c2ccccc2)cc1 (centres undefined) | 11.3 ×10⁻⁶ cm/s | > 200 nM | 62.9 nM | 76.4 nM | – | – | – | – | – | –
CN(C)CCCN1c2ccccc2Sc2ccc(Cl)cc21 [CHLORPROMAZINE] | 5.9 to 6.5 ×10⁻⁶ cm/s | – | – | – | – | – | – | – | – | –
O=C1C(c2ccccc2)N(S(=O)(=O)c2cccc(Br)c2)C(=O)C(c2ccccc2)N1S(=O)(=O)c1cccc(Br)c1 (centres undefined) | 9.45 ×10⁻⁶ cm/s | 193 nM | 54.7 nM | 76.6 nM | – | – | – | – | – | –
Nc1ccc(S(=O)(=O)N2C(=O)C(c3ccccc3)N(S(=O)(=O)c3ccc(N)cc3)C(=O)C2c2ccccc2)cc1 (centres undefined) | 5.53 ×10⁻⁶ cm/s | > 200 nM | 50.6 nM | 91.3 nM | – | – | – | – | – | –
O=C1C(Cc2ccccc2)N(S(=O)(=O)c2cccc(Br)c2)C(=O)C(Cc2ccccc2)N1S(=O)(=O)c1cccc(Br)c1 (centres undefined) | 8.06 ×10⁻⁶ cm/s | 191 nM | 58.1 nM | 76.7 nM | – | – | – | – | – | –
O=C1CN(S(=O)(=O)c2ccccc2)C(=O)CN1S(=O)(=O)c1ccccc1 | – | > 200 nM | 82.2 nM | 98.5 nM | – | – | – | – | – | –
O=C1CN(S(=O)(=O)c2ccc(Cl)cc2)C(=O)CN1S(=O)(=O)c1ccc(Cl)cc1 | 6.43 ×10⁻⁶ cm/s | 180 nM | 49.7 nM | 61.6 nM | – | – | – | – | – | –
O=C1C(c2ccccc2)N(S(=O)(=O)c2ccc(Cl)cc2)C(=O)C(c2ccccc2)N1S(=O)(=O)c1ccc(Cl)cc1 (centres undefined) | 7.38 ×10⁻⁶ cm/s | 161 nM | 19.6 nM | 28.6 nM | Toxic | 200 mg/kg | Non-Toxic | 7 nM | 99.4% | 20 nM
O=C1C(Cc2ccccc2)N(S(=O)(=O)c2cccc(O)c2)C(=O)C(Cc2ccccc2)N1S(=O)(=O)c1cccc(O)c1 (centres undefined) | 6.36 ×10⁻⁶ cm/s | > 200 nM | 83 nM | 69.8 nM | – | – | – | – | – | –
CCCS(=O)(=O)N1CC(=O)N(S(=O)(=O)CCC)CC1=O | 0.89 ×10⁻⁶ cm/s | > 200 nM | > 1000 nM | > 200 nM | – | – | – | – | – | –
